Assay results taken from PubChem BioAssay (NCI).
≈ marks a conversion by molar mass, not a printed value.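 These data come from cells grown in 96-well plates and exposed to compound for 48 hours at five concentrations. Here, GI50 denotes the concentration required for 50% inhibition of growth. The concentration for full growth arrest is given as TGI.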

Experiments:
Test in all cases: growth of human tumour cells (NCI), 48 h
MDA-N = system: MDA-N
BT-549 breast = system: BT-549 breast
DMS 114 small cell lung = system: DMS 114 small cell lung
XF 498 CNS = system: XF 498 CNS
KM20L2 colon = system: KM20L2 colon
SNB-78 CNS = system: SNB-78 CNS
M19-MEL melanoma = system: M19-MEL melanoma
HOP-18 NSCLC = system: HOP-18 NSCLC
RXF-631 renal = system: RXF-631 renal

| Structure (SMILES) | TGI (BT-549 breast) | TGI (DMS 114 small cell lung) | TGI (KM20L2 colon) | TGI (SNB-78 CNS) | TGI (M19-MEL melanoma) | TGI (HOP-18 NSCLC) | GI50 (BT-549 breast) | further results |
| --- | --- | --- | --- | --- | --- | --- | --- | --- |
| CN(C)CCSCCO | > 100 µM | – | – | – | – | – | – | TGI (MDA-N): > 100 µM |
| CC(NC(=O)C(=O)N/N=C1\C[C@@H](c2ccccc2)Nc2ccccc21)c1ccccc1 (stereo partly drawn) | – | > 100 µM | > 100 µM | > 100 µM | > 100 µM | – | – | TGI (XF 498 CNS): > 100 µM |
| CCc1ccc2nccc(NCCCN(C)C)c2c1[N+](=O)[O-] | – | – | – | – | – | – | – | TGI (MDA-N): > 100 µM |
| Cn1c(=O)c(C(=O)NC(=O)NCCCCCOC(=O)CCCCCCCCCCC(=O)OCCCCCNC(=O)NC(=O)c2cn(Cc3ccccc3)c(=O)n(C)c2=O)cn(Cc2ccccc2)c1=O | – | > 100 µM | > 100 µM | > 100 µM | > 100 µM | > 100 µM | – | TGI (XF 498 CNS): > 100 µM |
| CC1(C(=O)O)CCOc2ccccc21 (stereo not drawn) | – | > 100 µM | > 100 µM | > 100 µM | > 100 µM | > 100 µM | – | – |
| COc1cccc(N=N/C(=N\NC(=O)c2cc(Br)ccc2O)c2ccc(N(CCC#N)CCC#N)cc2OC)c1 | > 150 µg/mL | – | – | – | – | – | 74.1 µg/mL | GI50 (MDA-N): 59.3 µg/mL (≈ 98 µM); TGI (MDA-N): > 150 µg/mL |
| CNC1=C(C(=O)OC)SC(c2ccccc2)(c2ccccc2)SC1 | > 100 µM | – | – | – | – | – | 29.5 µM | – |
| Cc1cc(C)c(S(=O)(=O)N(CCc2cccc(Br)c2)Cc2ccc(-c3cccc(S(C)(=O)=O)c3)cc2)c(C)c1 | > 100 µM | – | – | – | – | – | > 100 µM | – |
| COC12CCC(C(C(=O)c3ccccc3)=C1C(=O)c1ccccc1)C(O)C2 (stereo not drawn) | – | > 100 µM | – | > 100 µM | > 100 µM | – | – | TGI (XF 498 CNS): > 100 µM; TGI (RXF-631 renal): > 100 µM |
| CCNNC(=O)[C@@H]1[C@H](c2cc(OC)c(OC)c(OC)c2)c2cc3c(cc2[C@H](O)[C@H]1CO)OCO3 | – | – | – | – | – | – | 0.413 µM | – |
| Cc1ccc(Nc2cc(C)nc(NCCCNc3ccnc4cc(Cl)ccc34)n2)cc1 | 3.4 µM | – | – | – | – | – | 1.63 µM | – |
| C[C@@H](COCCC(=O)N1CCN(c2ncc(C(F)(F)F)cn2)CC1)Nc1cn[nH]c(=O)c1C(F)(F)F | > 100 µM | – | – | – | – | – | 0.078 µM | – |
| Cc1c(-c2nnc(-c3ccccc3)o2)c(=O)n(-c2ccccc2)n1C | – | > 100 µM | > 100 µM | > 100 µM | > 100 µM | > 100 µM | – | TGI (XF 498 CNS): > 100 µM |
| CC(C)C(=O)[O-].CC(C)C(=O)[O-].N.N.N.N.[Co+3].[O-][Cl+3]([O-])([O-])[O-] | – | – | > 100 µM | > 100 µM | – | – | – | GI50 (KM20L2 colon): > 100 µM; GI50 (SNB-78 CNS): > 100 µM |
| NCc1c(C(N)=O)ncn1Cc1ccccc1 | – | > 100 µM | > 100 µM | > 100 µM | > 100 µM | > 100 µM | – | TGI (XF 498 CNS): > 100 µM |
| C=C1C(=O)OC2/C=C(\CO)CC/C=C(\CO)CC(OC(=O)C(C)C)C12 (stereo not drawn) | 23.4 µM | – | – | – | – | – | – | TGI (MDA-N): 17.9 µM |
| CCCCCCCCCCCCCCCCCCOc1ccccc1CC(=O)NCC[N+](C)(C)C | > 100 µM | – | – | – | – | – | 3.25 µM | – |
| CCOC(=O)C(C(=O)OCC)C(=O)c1ccccc1C(=O)c1ccccc1 | > 100 µM | – | – | – | – | – | – | – |

| Structure (SMILES) | TGI (BT-549 breast) | TGI (DMS 114 small cell lung) | TGI (KM20L2 colon) | TGI (SNB-78 CNS) | TGI (M19-MEL melanoma) | TGI (HOP-18 NSCLC) | GI50 (BT-549 breast) | further results |
| --- | --- | --- | --- | --- | --- | --- | --- | --- |
| CC(C)C[C@H](NC(=O)[C@@H](NC(=O)c1cccc(-c2ccccc2)n1)[C@@H](C)O)B(O)O | – | – | – | – | – | – | 0.0047 µM | – |
| CCOC(=O)N1C(c2ccccc2)C=CC(c2ccccc2)N1C(=O)OCC (stereo not drawn) | – | > 100 µM | > 100 µM | > 100 µM | > 100 µM | > 100 µM | – | TGI (XF 498 CNS): > 100 µM |
| N#Cc1nc2c(S(=O)(=O)c3ccccc3)c(N)n(Cc3ccc(Cl)cc3)c2nc1C#N | 41.7 µM | – | – | – | – | – | 10.8 µM | – |
| O=C(Nc1ccc(Br)cc1)C(=O)C(C(=O)c1ccccc1F)C1OC(=O)c2ccccc21 (stereo not drawn) | – | 62.8 µM | > 100 µM | 72.6 µM | 42.7 µM | > 100 µM | – | TGI (RXF-631 renal): > 100 µM |
| CCOC(=O)C1=C(Nc2ccc(Br)cc2)OC/C1=N\NC(=O)c1ccccc1O | – | – | > 100 µM | > 79.7 µM | > 100 µM | > 100 µM | – | – |
| CC1CCCc2c1c1ccc3c(O)cccc3c1oc2=O (stereo not drawn) | – | 76.3 µM | > 100 µM | > 100 µM | > 100 µM | > 100 µM | – | TGI (XF 498 CNS): > 100 µM |
| C=C1C(OC/C=C/COC2O[C@@H]3O[C@@]4(C)CC[C@H]5[C@H](C)CC[C@@H](C2=C)[C@@]35OO4)O[C@@H]2O[C@@]3(C)CC[C@H]4[C@H](C)CC[C@@H]1[C@@]24OO3 (stereo partly drawn) | 41.1 µM | – | – | – | – | – | 3.07 µM | – |
| O=S(=O)(NC1=NCCN1C(=S)SN1CCn2c1nsc2=S)c1ccccc1Cl | 36 µM | – | – | – | – | – | 8 µM | – |
| NS(=O)(=O)c1ccc(-n2ncc3c(Nc4ccccc4)ncnc32)cc1 | 92.8 µM | – | – | – | – | – | 30.3 µM | – |
| N#Cc1ccc(Oc2cccc(Oc3ccccc3)c2)cc1C#N | – | > 100 µM | > 100 µM | – | > 100 µM | – | – | TGI (RXF-631 renal): > 100 µM; GI50 (KM20L2 colon): > 100 µM; GI50 (M19-MEL melanoma): > 100 µM |
| CCCCn1c2ccccc2c2ccc3c(c21)C(=O)C=CC3=O | – | > 100 µM | > 100 µM | > 100 µM | 1.04 µM | > 100 µM | – | – |
| O=C(Nc1nc2ccc([N+](=O)[O-])cc2s1)C(=O)C(C(=O)c1ccncc1)C1OC(=O)c2ccccc21 (stereo not drawn) | – | > 100 µM | > 100 µM | > 100 µM | > 100 µM | > 100 µM | – | TGI (XF 498 CNS): > 100 µM; TGI (RXF-631 renal): > 100 µM |
| O=C(CNc1ccc2c(=S)c3ccccc3[nH]c2c1)Nc1ccccc1-c1ccccc1NC(=O)CNc1ccc2c(=S)c3ccccc3[nH]c2c1 | 56.7 µM | 36.6 µM | 47.4 µM | 82.9 µM | > 55.5 µM | 29.9 µM | – | TGI (XF 498 CNS): 41.1 µM; TGI (MDA-N): > 51.3 µM |
| COc1c(Cl)ccc2c(-c3nc4cc(Cl)c(F)cc4s3)cc(=O)oc12 | 37.5 µM | – | – | – | – | – | 7.58 µM | – |
| CC(=O)[O-].[Zn].c1ccc(/C(=N\Nc2ccccn2)c2ccccn2)cc1 | – | 0.0192 µM | 1.75 µM | 12.5 µM | 1.89 µM | 0.918 µM | – | – |
| COc1cccc(CCC(=O)c2cc3c(N)c(C(=O)Nc4cccc(Cl)c4C)sc3nc2C)c1 | 99.6 µM | – | – | – | – | – | 0.951 µM | – |
| CCC1(NC(=O)c2cc(F)c(F)c(F)c2F)C(=O)NC(=O)N(C(C)C)C1=O (stereo not drawn) | 44.1 µM | – | – | – | – | – | 20 µM | – |
| NC(=O)c1ccccc1NC(=O)c1ccccc1Cl | > 100 µM | – | – | – | – | – | > 100 µM | – |
